Data set [1] deals with Aortic ring. In words: Vasorelaxant activity in Sprague-Dawley rat aortic rings assessed as reduction in noradrenaline-induced contractions at 10 uM relative to control. Format: functional, Thoracic aorta. More on the design: scale not given: the % may be the effect or the level left.
Data set [2] relates to Aortic ring. The experiment in a line: Vasorelaxant activity in Sprague-Dawley rat aortic rings assessed as reduction in noradrenaline-induced contractions at 100 uM relative to control. Type of data set: functional, Thoracic aorta. Details: scale not given: the % may be the effect or the level left; call rule not given here.
The subject of data set [3] is Aortic ring. In words: Vasorelaxant activity in Sprague-Dawley rat aortic rings assessed as reduction in noradrenaline-induced contractions. Type of data set: functional, tissue-based. The following applies: Thoracic aorta, DDE = dose-dependent effect.
The nature of data set [4]: Prodrug conversion in sodium phosphate buffer assessed as H2S release in presence of L-cysteine by UV-Vis spectrophotometry. Format: ADME.
The test system of the next data set is CHO. In words: Cytotoxicity against CHO cells assessed as cell viability at 100 uM after 24 hrs MTT assay. The following applies: chinese hamster. Type of data set: toxicity, cell-based, Cricetulus griseus. (In general: Formazan colour is commonly taken as a measure of viable cells.)
Data set [5] deals with Rattus norvegicus. In words: Antihypertensive activity in spontaneous hypertensive rat model assessed as systolic blood pressure at 80 mg/kg, po measured after 1 hr by tail cuff method (reference value: 186.1 +/- 4.6 mmHg). Type of data set: functional.
In data set [6] the test system is Rattus norvegicus. The experiment in a line: Antihypertensive activity in spontaneous hypertensive rat model assessed as systolic blood pressure at 80 mg/kg, po measured after 2 hr by tail cuff method (reference value: 186.1 +/- 4.6 mmHg). Format: functional.
Data set [7] relates to Rattus norvegicus. The experiment in a line: Antihypertensive activity in spontaneous hypertensive rat model assessed as systolic blood pressure at 80 mg/kg, po measured after 4 hr by tail cuff method (reference value: 186.1 +/- 4.6 mmHg). Type of data set: functional.
Data set [8] has as its system Rattus norvegicus. The experiment in a line: Antihypertensive activity in spontaneous hypertensive rat model assessed as systolic blood pressure at 80 mg/kg, po measured after 6 hr by tail cuff method (reference value: 186.1 +/- 4.6 mmHg). Type of data set: functional.
The test system of data set [9] is Rattus norvegicus. In words: Antihypertensive activity in spontaneous hypertensive rat model assessed as systolic blood pressure at 80 mg/kg, po measured after 8 hr by tail cuff method (reference value: 186.1 +/- 4.6 mmHg). Format: functional.
The test system of data set [10] is Rattus norvegicus. In words: Antihypertensive activity in spontaneous hypertensive rat model assessed as systolic blood pressure at 40 mg/kg, po measured after 1 hr by tail cuff method (reference value: 186.1 +/- 4.6 mmHg). Format: functional.
Data set [11] concerns Rattus norvegicus. The experiment in a line: Antihypertensive activity in spontaneous hypertensive rat model assessed as systolic blood pressure at 40 mg/kg, po measured after 2 hr by tail cuff method (reference value: 186.1 +/- 4.6 mmHg). Format: functional.
Data set [12] has as its system Rattus norvegicus. In words: Antihypertensive activity in spontaneous hypertensive rat model assessed as systolic blood pressure at 40 mg/kg, po measured after 4 hr by tail cuff method (reference value: 186.1 +/- 4.6 mmHg). Type of data set: functional.
Data set [13] concerns Rattus norvegicus. In words: Antihypertensive activity in spontaneous hypertensive rat model assessed as systolic blood pressure at 40 mg/kg, po measured after 6 hr by tail cuff method (reference value: 186.1 +/- 4.6 mmHg). Format: functional.
For data set [14], the system named is Rattus norvegicus. In words: Antihypertensive activity in spontaneous hypertensive rat model assessed as systolic blood pressure at 40 mg/kg, po measured after 8 hr by tail cuff method (reference value: 186.1 +/- 4.6 mmHg). Format: functional.

Structures are written as SMILES.

On to `COc1ccc2c(c1OCCOc1ccc(C(N)=S)cc1)COC(C)C2=O` (centres undefined), for which the Activity came out at 19.8% in the data set with Aortic ring [1] and 31.4% with Aortic ring [2].
Take `NC(=S)c1ccc(O)cc1`: the Activity in the data set with Aortic ring [1] is 1.7%; in the data set on Aortic ring [2] it was 17.3%.
As to `COc1cc2c(cc1O)C(=O)C(C)OC2` (centres undefined), the Activity with Aortic ring [1] came to 0.4%; in the data set with Aortic ring [2] it was 6.5%.
For the compound `COc1ccc2c(c1OCCCCCCCCCCCCOc1ccc(C(N)=S)cc1)COC(C)C2=O` (centres undefined), the Activity came out at 12.6% in the data set with Aortic ring [1] and 25% with Aortic ring [2].
For `COc1ccc2c(c1OCCCCCOc1ccc(C(N)=S)cc1)COC(C)C2=O` (centres undefined), the Activity is 30.2% in the data set with Aortic ring [1]; 55.4% in the data set with Aortic ring [2]; “Dde” with Aortic ring [3]; “Active” in data set [4]; “Non-Toxic” in the data set on CHO.
`COc1cc2c(cc1OCCCCCCCCCCCCOc1ccc(C(N)=S)cc1)C(=O)C(C)OC2` (centres undefined): the Activity in the data set with Aortic ring [1] was 2.2%; in the data set on Aortic ring [2] it was 12.5%.
For the compound `COc1cc2c(cc1OCCCCOc1ccc(C(N)=S)cc1)C(=O)C(C)OC2` (centres undefined), the values for the Activity with Aortic ring [1] and with Aortic ring [2] were 5.1% and 4.3%, respectively.
Regarding `[Na+].[SH-]` [SODIUM HYDROSULFIDE], the Activity in the data set on Aortic ring [1] is 18.7%; in the data set on Aortic ring [2], 52.9%.
As to `COc1cc2c(cc1OCCCCCCOc1ccc(C(N)=S)cc1)C(=O)C(C)OC2` (centres undefined), the Activity in the data set with Aortic ring [1] is 49.6%; in the data set on Aortic ring [2], 66.7%; in the data set on Aortic ring [3], “Dde”; with Rattus norvegicus [5] it was 170.2 mmHg; in the data set on Rattus norvegicus [6], 137.4 mmHg; with Rattus norvegicus [7], 142.2 mmHg. Further, the Activity was 153.6 mmHg with Rattus norvegicus [8], 169.4 mmHg in the data set on Rattus norvegicus [9], “Active” in data set [4] and “Non-Toxic” in the data set on CHO.
As for `CC1OCc2c(ccc(O)c2O)C1=O` (racemic), the Activity worked out at 170.9 mmHg in the data set on Rattus norvegicus [5]; 165.4 mmHg in the data set on Rattus norvegicus [6]; 151.5 mmHg in the data set with Rattus norvegicus [7]; 140.1 mmHg in the data set with Rattus norvegicus [8]; 150.6 mmHg with Rattus norvegicus [9].
Regarding `COc1ccc2c(c1OCCCCCCCCOc1ccc(C(N)=S)cc1)COC(C)C2=O` (centres undefined), the Activity in the data set with Aortic ring [1] is 25%; with Aortic ring [2] it was 56.9%; in the data set on Aortic ring [3], “Dde”; in data set [4] it was “Active”; in the data set on CHO it was “Non-Toxic”.
As to `COc1cc2c(cc1OCCCCCOc1ccc(C(N)=S)cc1)C(=O)C(C)OC2` (centres undefined), the Activity in the data set with Aortic ring [1] came out at 6.6%; in the data set on Aortic ring [2] it was 28.2%.
Taken in the same sequence, the figures for `COc1ccc2c(c1O)COC(C)C2=O` (centres undefined) were 4.3% and 50.7%.
Consider `COc1ccc2c(c1OCCCOc1ccc(C(N)=S)cc1)COC(C)C2=O` (centres undefined), for which the values for the Activity in the data set on Aortic ring [1] and with Aortic ring [2] were 3.7% and 15.7%, respectively.
In the case of `COc1ccc2c(c1OCCOc1ccc(-c3cc(=S)ss3)cc1)COC(C)C2=O` (centres undefined), the figures for the Activity with Aortic ring [1] and in the data set with Aortic ring [2] were 5.5% and 18.2%, respectively.
Take `COc1cc2c(cc1OCCCOc1ccc(C(N)=S)cc1)C(=O)C(C)OC2` (centres undefined): the Activity with Aortic ring [1] was 45.4%; in the data set on Aortic ring [2] it was 61.8%; in the data set with Aortic ring [3], “Dde”; with CHO, “Non-Toxic”.
`COc1ccccc1N1CCN(CC(O)COc2cccc3ccccc23)CC1` (centres undefined) [NAFTOPIDIL]: the Activity in the data set with Rattus norvegicus [10] is 161.4 mmHg; in the data set with Rattus norvegicus [11] it was 148.1 mmHg; with Rattus norvegicus [12], 153.7 mmHg; in the data set with Rattus norvegicus [13] it was 158.2 mmHg; in the data set with Rattus norvegicus [14] it was 170.5 mmHg.
Regarding `COc1cc2c(cc1OCCCCCCCCOc1ccc(C(N)=S)cc1)C(=O)C(C)OC2` (centres undefined), the Activity in the data set on Aortic ring [1] is given as 19.9%; with Aortic ring [2], 31.2%.
On to `COc1ccc2c(c1OCCCOc1ccc(-c3cc(=S)ss3)cc1)COC(C)C2=O` (centres undefined), for which the Activity is on record as 5.4% in the data set with Aortic ring [1] and 9.2% in the data set with Aortic ring [2].
For the compound `COc1ccc2c(c1OCCCCCCOc1ccc(C(N)=S)cc1)COC(C)C2=O` (centres undefined), the Activity in the data set on Aortic ring [1] is recorded as 20%; in the data set with Aortic ring [2], 31.1%.
`COc1ccc2c(c1OCCCCOc1ccc(C(N)=S)cc1)COC(C)C2=O` (centres undefined): the values for the Activity with Aortic ring [1] and in the data set on Aortic ring [2] were 2.9% and 35.1%, respectively.

Source of the values: ChEMBL document CHEMBL5143687, “Design, synthesis and biological evaluation of hydrogen sulfide-releasing isochroman-4-one derivatives as new antihypertensive agent candidates” (Bioorg Med Chem, 2022).
